Patent publication US7371207B2 (Wyeth, priority 2002, dated 2008)

System: gene expression in the kidney
Test: GeneChip microarray survey of E2 regulated gene expression, kidney
Conditions: for E2: Study 2 ERbKO; for Study 1 E2 Expr (/evansm/Kidney, mouse/Study 1, U74v2/KO E2 kidney (81038)) / E2 Expr (/evansm/Kidney, mouse/Study 2, U74v2/ER bKO kidney E2 (82412)): ERbKO
Procedure: FIG. 1 depicts a pattern analysis generated by a GeneChip microarray analysis. […] Two hours following the final dose, the mice were euthanized and 13 tissues removed for RNA preparation. Two independent studies were performed, with total RNA pooled from two groups of three animals for each condition. Gene expression was quantified by GeneChip microarrays using murine U74 sub A arrays. Data were analyzed for patterns indicating either ERα or ERβ dependent regulation as shown. […] The number of genes in each tissue that matched the theoretical induction (↑) or repression (↓) patterns for ERα or ERβ are indicated.
FIGS. 2A-2C show a series of bar graphs showing gene expression levels of known genes regulated in the kidney in an ERα pattern. […] Expression was measured in two independent sets of animals, with two groups of animals for each treatment in each study. A gene name abbreviation is shown above each graph, with the corresponding Unigene designation shown below.
One week later, the animals were ovariectomized.
GeneChip—Total RNA was prepared separately from each individual organ by using Trizol (Invitrogen) followed by subsequent repurification on Rneasy columns (Qiagen). In general, two pools of RNA were created using equal amounts of RNA from three mice. For small organs such as pituitary, an equal amount of RNA from six animals was combined.
Target Preparation and Array Hybridization—Total RNA was used to generate biotin labeled cRNA target as described (8) which was hybridized to the murine MG_U74Av2 probe arrays (Affymetrix, Santa Clara, Calif.) for 16 h at 45° C. Eleven biotin-labeled cRNAs at defined concentration were spiked into each hybridization and used to convert average difference values to frequencies expressed as parts per million.
The resulting data set was queried for genes whose regulation was dependent on ERα or ERβ.

[1] = 1st line of INDUCTIONS (by order 100060_l_at, kallikrein 8)
[2] = 2nd line of INDUCTIONS (by order 100061_f_at, kallikrein 8)
[3] = 3rd line of INDUCTIONS (by order 95775_f_at, kallikrein 1)
[4] = 4th line of INDUCTIONS (by order 104495_f_at, kallikrein 5)
[5] = 5th line of INDUCTIONS (by order 94716_f_at, kallikrein 9)
[6] = 6th line of INDUCTIONS (by order 100422_f_at, signal transducer and activator of transcription 5A)
[7] = 7th line of INDUCTIONS (by order 100423_f_at, signal transducer and activator of transcription 5A)
[8] = 8th line of INDUCTIONS (by order 101289_f_at, M17979)

Compound: C[C@]12CC[C@@H]3c4ccc(O)cc4CC[C@H]3[C@@H]1CC[C@@H]2O [E2, 17β-estradiol]
- E2 [1]: 37
- Study 1 E2 Expr (/evansm/Kidney, mouse/Study 1, U74v2/KO E2 kidney (81038)) [1]: 37
- E2 Expr (/evansm/Kidney, mouse/Study 2, U74v2/ER bKO kidney E2 (82412)) [1]: 44
- E2 Expr (/evansm/Kidney, mouse/Study 2, U74v2/WT kidney E2 (82408)) [1]: 40
- E2 Expr (/evansm/Kidney, mouse/Study 2, U74v2/WT kidney E2 (82409)) [1]: 31
- E2 [2]: 297
- Study 1 E2 Expr (/evansm/Kidney, mouse/Study 1, U74v2/KO E2 kidney (81038)) [2]: 370
- E2 Expr (/evansm/Kidney, mouse/Study 2, U74v2/ER bKO kidney E2 (82412)) [2]: 359
- E2 Expr (/evansm/Kidney, mouse/Study 2, U74v2/WT kidney E2 (82408)) [2]: 338
- E2 Expr (/evansm/Kidney, mouse/Study 2, U74v2/WT kidney E2 (82409)) [2]: 201
- E2 [3]: 291
- Study 1 E2 Expr (/evansm/Kidney, mouse/Study 1, U74v2/KO E2 kidney (81038)) [3]: 333
- E2 Expr (/evansm/Kidney, mouse/Study 2, U74v2/ER bKO kidney E2 (82412)) [3]: 361
- E2 Expr (/evansm/Kidney, mouse/Study 2, U74v2/WT kidney E2 (82408)) [3]: 345
- E2 Expr (/evansm/Kidney, mouse/Study 2, U74v2/WT kidney E2 (82409)) [3]: 234
- E2 [4]: 130
- Study 1 E2 Expr (/evansm/Kidney, mouse/Study 1, U74v2/KO E2 kidney (81038)) [4]: 125
- E2 Expr (/evansm/Kidney, mouse/Study 2, U74v2/ER bKO kidney E2 (82412)) [4]: 163
- E2 Expr (/evansm/Kidney, mouse/Study 2, U74v2/WT kidney E2 (82408)) [4]: 145
- E2 Expr (/evansm/Kidney, mouse/Study 2, U74v2/WT kidney E2 (82409)) [4]: 89
- E2 [5]: 302
- Study 1 E2 Expr (/evansm/Kidney, mouse/Study 1, U74v2/KO E2 kidney (81038)) [5]: 372
- E2 Expr (/evansm/Kidney, mouse/Study 2, U74v2/ER bKO kidney E2 (82412)) [5]: 369
- E2 Expr (/evansm/Kidney, mouse/Study 2, U74v2/WT kidney E2 (82408)) [5]: 329
- E2 Expr (/evansm/Kidney, mouse/Study 2, U74v2/WT kidney E2 (82409)) [5]: 230
- E2 [6]: 92
- Study 1 E2 Expr (/evansm/Kidney, mouse/Study 1, U74v2/KO E2 kidney (81038)) [6]: 70
- E2 Expr (/evansm/Kidney, mouse/Study 2, U74v2/ER bKO kidney E2 (82412)) [6]: 104
- E2 Expr (/evansm/Kidney, mouse/Study 2, U74v2/WT kidney E2 (82408)) [6]: 104
- E2 Expr (/evansm/Kidney, mouse/Study 2, U74v2/WT kidney E2 (82409)) [6]: 73
- E2 [7]: 72
- Study 1 E2 Expr (/evansm/Kidney, mouse/Study 1, U74v2/KO E2 kidney (81038)) [7]: 61
- E2 Expr (/evansm/Kidney, mouse/Study 2, U74v2/ER bKO kidney E2 (82412)) [7]: 58
- E2 Expr (/evansm/Kidney, mouse/Study 2, U74v2/WT kidney E2 (82408)) [7]: 80
- E2 Expr (/evansm/Kidney, mouse/Study 2, U74v2/WT kidney E2 (82409)) [7]: 44
- E2 [8]: 236
- Study 1 E2 Expr (/evansm/Kidney, mouse/Study 1, U74v2/KO E2 kidney (81038)) [8]: 282
- E2 Expr (/evansm/Kidney, mouse/Study 2, U74v2/ER bKO kidney E2 (82412)) [8]: 295
- E2 Expr (/evansm/Kidney, mouse/Study 2, U74v2/WT kidney E2 (82408)) [8]: 264
- E2 Expr (/evansm/Kidney, mouse/Study 2, U74v2/WT kidney E2 (82409)) [8]: 178
- E2 Expr (/evansm/Kidney, mouse/Study 1, U74v2/WT E2 kidney (81036)) (92232_at, U88328, cytokine inducible SH-2 containing protein 3): 45
- E2 Expr (/evansm/Kidney, mouse/Study 1, U74v2/WT E2 kidney (81036)) (93104_at, Z16410, B-cell translocation gene 1, anti-proliferative): 14
- E2 Expr (/evansm/Kidney, mouse/Study 1, U74v2/WT E2 kidney (81036)) (93374_at, AI836349, junctophilin 3): 65
- E2 Expr (/evansm/Kidney, mouse/Study 1, U74v2/WT E2 kidney (81036)) (94694_at, M69196, proprotein convertase subtillsin/kexin type 1): 27
- E2 Expr (/evansm/Kidney, mouse/Study 1, U74v2/WT E2 kidney (81036)) (94716_f_at, M17962, kallikrein 9): 380
- E2 Expr (/evansm/Kidney, mouse/Study 1, U74v2/WT E2 kidney (81036)) (94773_at, X01801, nerve growth factor, alpha): 53
- E2 Expr (/evansm/Kidney, mouse/Study 1, U74v2/WT E2 kidney (81036)) (95559_at, AI838836, RIKEN cDNA 6330403K07 gene): 74
- E2 Expr (/evansm/Kidney, mouse/Study 1, U74v2/WT E2 kidney (81036)) (95775_f_at, V00829, kallikrein 1): 370
- E2 Expr (/evansm/Kidney, mouse/Study 1, U74v2/WT E2 kidney (81036)) (95905_at, AI118078, Mm.24361): 83
- E2 Expr (/evansm/Kidney, mouse/Study 1, U74v2/WT E2 kidney (81036)) (96215_f_at, AI53421, Mm.218360): 206
- E2 Expr (/evansm/Kidney, mouse/Study 1, U74v2/WT E2 kidney (81036)) (96591_at, U24703, reelin): 43
- E2 Expr (/evansm/Kidney, mouse/Study 1, U74v2/WT E2 kidney (81036)) (96629_at, X04097, similar to TESTOSTERONE-REGULATED RP2 PROTEIN): 55
- E2 Expr (/evansm/Kidney, mouse/Study 1, U74v2/WT E2 kidney (81036)) (97353_at, AI837497, AF9Q34 NGAP-like protein): 29
- E2 Expr (/evansm/Kidney, mouse/Study 1, U74v2/WT E2 kidney (81036)) (97519_at, X13986, secreted phosphoprotein 1): 178
- E2 Expr (/evansm/Kidney, mouse/Study 1, U74v2/WT E2 kidney (81036)) (97520_s_at, X83569, neuroatin): 157
- E2 Expr (/evansm/Kidney, mouse/Study 1, U74v2/WT E2 kidney (81036)) (98055_at, AW121500, bladder cancer associated protein homolog (human)): 14
- E2 Expr (/evansm/Kidney, mouse/Study 1, U74v2/WT E2 kidney (81036)) (98437_at, U83720, caspase 3, apoptosis related cysteine protease): 39
- E2 Expr (/evansm/Kidney, mouse/Study 1, U74v2/WT E2 kidney (81036)) (98628_f_at, AF003695, hypoxia inducible factor 1, alpha subunit): 288
- E2 Expr (/evansm/Kidney, mouse/Study 1, U74v2/WT E2 kidney (81036)) (99057_at, M12379, thymus cell antigen 1, theta): 57
- E2 Expr (/evansm/Kidney, mouse/Study 1, U74v2/WT E2 kidney (81036)) (99127_at, X61506, spinocerebellar ataxia 10 homolog (human)): 66
- E2 Expr (/evansm/Kidney, mouse/Study 1, U74v2/WT E2 kidney (81036)) (99552_at, U79550, slug, chicken homolog): 19
- E2 Expr (/evansm/Kidney, mouse/Study 1, U74v2/WT E2 kidney (81036)) (99632_at, U83902, MAD2 (mitotic arrest deficient, homolog)-like 1 (yeast)): 27
- E2 Expr (/evansm/Kidney, mouse/Study 1, U74v2/WT E2 kidney (81036)) (100060_l_at, M13500, kallikrein 8): 39
- E2 Expr (/evansm/Kidney, mouse/Study 1, U74v2/WT E2 kidney (81036)) (100061_f_at, M13500, kallikrein 8): 341
- E2 Expr (/evansm/Kidney, mouse/Study 1, U74v2/WT E2 kidney (81036)) (100407_at, L38580, galanin): 98
- E2 Expr (/evansm/Kidney, mouse/Study 1, U74v2/WT E2 kidney (81036)) (100422_f_at, AJ237939, signal transducer and activator of transcription 5A): 151
- E2 Expr (/evansm/Kidney, mouse/Study 1, U74v2/WT E2 kidney (81036)) (100423_f_at, AJ237939, signal transducer and activator of transcription 5A): 96
- E2 Expr (/evansm/Kidney, mouse/Study 1, U74v2/WT E2 kidney (81036)) (100440_f_at, U76758, ankyrin 1, erythroid): 119
- E2 Expr (/evansm/Kidney, mouse/Study 1, U74v2/WT E2 kidney (81036)) (100539_at, AI841279, ?HBACH Cytosolic acyl coenzyme A thioester hydrolase): 16
- E2 Expr (/evansm/Kidney, mouse/Study 1, U74v2/WT E2 kidney (81036)) (100681_f_at, V00829): 123
- E2 Expr (/evansm/Kidney, mouse/Study 1, U74v2/WT E2 kidney (81036)) (100719_f_at, J03677, kallikrein 16): 119
- E2 Expr (/evansm/Kidney, mouse/Study 1, U74v2/WT E2 kidney (81036)) (101289_f_at, M17979): 305
- E2 Expr (/evansm/Kidney, mouse/Study 1, U74v2/WT E2 kidney (81036)) (101737_at, U12932, follicle stimulating hormone beta): 19
- E2 Expr (/evansm/Kidney, mouse/Study 1, U74v2/WT E2 kidney (81036)) (101738_at, U25145, tutetnizing hormone beta): 578
- E2 Expr (/evansm/Kidney, mouse/Study 1, U74v2/WT E2 kidney (81036)) (101870_at, V00793): 21
